The values below come from patent US10370339B2, “N-Methylbenzimidazoles as mIDH1 inhibitors” (BAYER PHARMA AKTIENGESELLSCHAFT, priority 2015, dated 2019).

The IC50 is the concentration at which inhibition is half-maximal. Read a high IC50 as weaker potency.

Test [1] addresses Mutant IDH1 (LN229 R132H cells) (Homo sapiens (Human), UniProt O75874, R132H). The experiment in a line: Mutant IDH1 cellular assay (2-HG levels in medium of LN229 R132H cells). It is filed as cell-based. The conditions noted are these: 2-HG production in LN229 R132H cells, 24 hours incubation, fluorescence readout. The method, then:
Levels of (2R)-2-hydroxyglutarate (2HG) were measured in medium of a cell line with overexpression of mutated isocitrate dehydrogenase (mIDH) protein. mIDH catalyzes the NADPH-dependent reduction of alpha-ketoglutarate to 2-HG. Cells (LN229 R132H, Mohrenz et al., Apoptosis (2013) 18:1416-1425) were grown in DMEM containing 10% FCS. They were harvested by trypsin and seeded into 96-well plates. Cells were incubated overnight at 37° C. in 5% CO2. The next day test compounds were added to each cell well. The final concentration of DMSO was 0.1% and DMSO controls were included. The plates were then placed in an incubator for 24 hours.
2-HG was measured according to Balss et al. (Acta Neuropathol (2012) 124: 883-891). Briefly, HClO4 was added to each well and the plates were centrifuged. Aliquots are removed and incubated with hydroxyglutarate dehydrogenase (HGDH), diaphorase, NAD+, and resazurin. The conversion of resazurin to resorufin was detected by fluorescence spectroscopy at Ex 540 nm Em 600 nm. The increase in fluorescence is proportional to 2-HG production. IC50 values are determined by interpolation from plots of relative fluorescence vs inhibitor concentration.

Another test has as its target IDH1 R132H enzyme (Homo sapiens (Human), UniProt O75874, R132H). The test can be described thus: Mutant IDH1 R132H biochemical assay. The conditions noted are these: NADPH consumption, luminescent readout; 1.5 nM enzyme, 1 μM NADPH, 250 μM α-KG, 30 minutes, 32° C. The procedure:
Mutant IDH1 R132H Biochemical Assay mIDH1 catalyzes the NADPH-dependent reduction of alpha-ketoglutarate (a-KG) to (2R)-2-hydroxyglutarate (2-HG). NADPH consumption was measured by luminescent readout.
The biochemical reactions were performed at 32° C. in 384-well plates using a reaction volume of 41 μL and the following assay buffer conditions: 50 mM Tris pH 7.5, 100 mM NaCl, 20 mM MgCl2, 0.05% BSA, 0.01% Brij, 1 μM NADPH, and 250 μM α-KG. The IDH1 R132H enzyme was used in a final concentration of 1.5 nM. Test compounds were used in a concentration range between 0.002 and 10 μM. The final DMSO concentration was 2.4%.
The reaction was incubated for 30 minutes, then 40 μL of detection mix (0.75 μg/ml Luciferase, 0.02 U/ml Oxidoreductase, 4 μg/mL FMN, 2 μL/ml decanal/ethanol, 50 mM Tris pH 7.5, 0.5% Glycerin, 0.01% Tween-20, 0.05% BSA) was added. Luminescence was measured on a luminescent reader (10 seconds measuring time, 1 second integration period, 30% sensitivity). The decrease in luminescence is proportional to mIDH1 activity. IC50 values are determined by interpolation from plots of relative luminescence versus inhibitor concentration.

Sequence of Mutant IDH1 (LN229 R132H cells) (O75874 whole entry R132H): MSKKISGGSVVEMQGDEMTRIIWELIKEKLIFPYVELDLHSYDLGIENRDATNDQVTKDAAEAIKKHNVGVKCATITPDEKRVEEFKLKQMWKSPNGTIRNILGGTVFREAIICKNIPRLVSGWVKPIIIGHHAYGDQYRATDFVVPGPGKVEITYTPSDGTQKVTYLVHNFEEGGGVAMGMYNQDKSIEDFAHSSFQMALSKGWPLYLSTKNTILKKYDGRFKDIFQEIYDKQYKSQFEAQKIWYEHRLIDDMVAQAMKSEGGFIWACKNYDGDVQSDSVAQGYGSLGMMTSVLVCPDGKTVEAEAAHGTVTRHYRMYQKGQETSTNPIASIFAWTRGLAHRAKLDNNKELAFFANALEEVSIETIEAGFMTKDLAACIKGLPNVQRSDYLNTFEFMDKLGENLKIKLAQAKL
Sequence of IDH1 R132H enzyme (O75874 whole entry R132H): as above

Turning to `COc1cc2c(cc1C(=O)O)nc(Nc1ccc(C(C)C)cc1)n2[C@@H]1C[C@H](C)CC[C@H]1C(C)C` [Example 2-29], the IC50 in test [1] came to 40 nM; at IDH1 R132H enzyme, 13 nM.
